How the values were obtained:
tomato = test: Tomato seedlings transplanted to alkaline soil, foliage spray of agent every 2 weeks, dry weight of shoots; type: in vivo, tomato (Kyoryoku Beijyu); settings: pH of soil 8.8, foliage spray 5 mL/pot every 2 weeks, transplanted June 6, harvested July 6
Procedure: Calcium carbonate was added to field soil so as to adjust the Ca content to 5 mass %, and an appropriate amount of aqueous sodium carbonate solution was added thereto, followed by sufficiently mixing, to thereby provide alkaline soil (pH: 8.8). A chemical fertilizer (base fertilizer) was added to the alkaline soil in an amount of 10 kg/10 a (as reduced to N). Each of the pots (1/5000 a) was filled with the above soil, and on the day of June 6, tomato seedlings (Kyoryoku Beijyu, product of Nohara Seed Co., Ltd.) were transplanted to the soil, followed by cultivation in a greenhouse. After transplanting, an aqueous solution (0.05 mass %) of each agent having a composition shown in Table 8 was sprayed every 2 weeks to the stems and leaves of the plants in each pot (5 mL/pot), and the pot was controlled under ordinary conditions. On the day of July 6, the soil was washed out with water, whereby the plants were harvested. Subsequently, the plants were dried at 80° C. for 24 hours by a drier, and the dry weight of shoots of each plant was measured.
The test procedure of Example 21 was repeated, except that application of sulfur to soil treatment and application of other agent ingredients to foliage treatment were simultaneously performed.
The test procedure of Example 21 was repeated, except that the agent was changed.

Komatsuna [1] = test: Komatsuna grown in alkaline soil, foliage spray of agent every 2 weeks, plant height and dry weight of shoots; type: in vivo, Komatsuna (Calvita); settings: pH of soil 8.8, foliage spray 5 mL/pot every 2 weeks, 27 days after sowing, averaged
Procedure: Calcium carbonate was added to field soil so as to adjust the Ca content to 5 mass %, and an appropriate amount of aqueous sodium carbonate solution was added thereto, followed by sufficiently mixing, to thereby provide alkaline soil (pH: 8.8). A chemical fertilizer (base fertilizer) was added to the alkaline soil in an amount of 10 kg/10 a (as reduced to N). Each of the pots (1/5000 a) was filled with the above soil, and 10 seeds of Komatsuna (Calvita, product of Nohara Seed Co., Ltd.) were sown in the soil, followed by cultivation in a greenhouse. Ten days after, five uniform seedlings per pot were selected by cutting. After cutting, an aqueous solution (0.05 mass %) of each agent having a composition shown in Table 2 was sprayed every 2 weeks to the stems and leaves of the plants in each pot (5 mL/pot), and the pot was controlled under ordinary conditions. Twenty-seven days after sowing, the soil was washed out with water, whereby the plants were harvested. The plant height of each plant was measured. Subsequently, the plants were dried at 80° C. for 24 hours by a drier, and the dry weight of shoots of each plant was measured.
The test procedure of Example 7 was repeated, except that the amounts of ingredients were changed. […]
The test procedure of Example 7 was repeated, except that the agent was changed. […]

Komatsuna [2] = test: Komatsuna grown in alkaline soil, agent applied to the soil surface every 2 weeks (soil treatment), plant height and dry weight of shoots; type: in vivo, Komatsuna (Calvita); settings: pH of soil 8.8, applied to surface of the soil 10 mL/pot every 2 weeks, 27 days after sowing
Procedure: Calcium carbonate was added to field soil so as to adjust the Ca content to 5 mass %, and an appropriate amount of aqueous sodium carbonate solution was added thereto, followed by sufficiently mixing, to thereby provide alkaline soil (pH: 8.8). A chemical fertilizer (base fertilizer) was added to the alkaline soil in an amount of 10 kg/10 a (as reduced to N) Each of the pots (1/5000 a) was filled with the above soil, and 10 seeds of Komatsuna (Calvita, product of Nohara Seed Co., Ltd.) were sown in the soil, followed by cultivation in a greenhouse. Ten days after, five uniform seedlings per pot were selected by cutting. After cutting, an aqueous solution (0.05 mass %) of each agent having a composition shown in Table 9 was applied every 2 weeks to the surface of the soil in each pot (10 mL/pot), and the pot was controlled under ordinary conditions. Twenty-seven days after sowing, the soil was washed out with water, whereby the plants were harvested, and the plant height of each plant was measured. Subsequently, the plants were dried at 80° C. for 24 hours by a drier, and the dry weight of shoots of each plant was measured.
The test procedure of Example 23 was repeated, except that application of sulfur to soil treatment and application of other agent ingredients to foliage treatment were simultaneously performed.
The test procedure of Example 23 was repeated, except that the agent was changed.

[3] = test system: plants grown in alkaline soil; settings: spraying, Non-Patent Document 1; cited from earlier work
corn = test: Corn grown in alkaline soil, foliage spray of agent every 2 weeks, plant height and dry weight of shoots; type: in vivo, corn (species: Amai bantam 90); settings: pH of soil 8.7, foliage spray 5 mL/pot every 2 weeks, sown November 15, harvested December 26
Procedure: Calcium carbonate was added to field soil so as to adjust the Ca content to 5 mass %, and an appropriate amount of aqueous sodium carbonate solution was added thereto, followed by sufficiently mixing, to thereby provide alkaline soil (pH: 8.7). A chemical fertilizer (base fertilizer) was added to the alkaline soil in an amount of 10 kg/10 a (as reduced to N). Each of the pots (1/5000 a) was filled with the above soil, and 4 seeds of corn (species: Amai bantam 90, product of Tohoku Seed Co., Ltd.) were sown in the soil on November 15, followed by cultivation in a greenhouse. Twelve days after, two uniform seedlings per pot were selected by cutting. After cutting, an aqueous solution (0.05 mass %) of each agent having a composition shown in Table 6 was sprayed every 2 weeks to the stems and leaves of the plants in each pot (5 mL/pot), and the pot was controlled under ordinary conditions. On the day of December 26, the soil was washed out with water, whereby the plants were harvested, and the plant height of each plant was measured. Subsequently, the plants were dried at 80° C. for 24 hours by a drier, and the dry weight of shoots of each plant was measured.
The test procedure of Example 17 was repeated, except that application of sulfur to soil treatment and application of other agent ingredients to foliage treatment were simultaneously performed. […]

cotton = test: Cotton grown in alkaline soil, foliage spray of agent every 2 weeks, plant height and dry weight of shoots; type: in vivo, cotton (species: Dwarf cotton); settings: pH of soil 8.8, foliage spray 5 mL/pot every 2 weeks, sown Sep. 22, harvested November 7
Procedure: Calcium carbonate was added to field soil so as to adjust the Ca content to 5 mass %, and an appropriate amount of aqueous sodium carbonate solution was added thereto, followed by sufficiently mixing, to thereby provide alkaline soil (pH: 8.8). A chemical fertilizer (base fertilizer) was added to the alkaline soil in an amount of 10 kg/10 a (as reduced to N). Each of the pots (1/5000 a) was filled with the above soil, and 6 seeds of cotton (species: Dwarf cotton, product of Sakata Seed Co.) were sown in the soil on Sep. 22, followed by cultivation in a greenhouse. Ten days after, three uniform seedlings per pot were selected by cutting. After cutting, an aqueous solution (0.05 mass %) of each agent having a composition shown in Table 4 was sprayed every 2 weeks to the stems and leaves of the plants in each pot (5 mL/pot), and the pot was controlled under ordinary conditions. On the day of November 7, the soil was washed out with water, whereby the plants were harvested, and the plant height of each plant was measured. Subsequently, the plants were dried at 80° C. for 24 hours by a drier, and the dry weight of shoots of each plant was measured.
The test procedure of Example 13 was repeated, except that sulfur was further applied to soil treatment one day after foliage treatment with other agent ingredients.
The test procedure of Example 13 was repeated, except that the agent was changed. […]

sunflower = test: Sunflower grown in alkaline soil, foliage spray of agent every 2 weeks, plant height and dry weight of shoots; type: in vivo, sunflower (Pachino-gold); settings: pH of soil 8.8, foliage spray 5 mL/pot every 2 weeks, sown June 13, measured August 10
Procedure: Culture soil (sowing mold, product of Takii Seed Co., Ltd.; 440 mg-N/L, 390 mg-P/L, and 410 mg-K/L) and plug soil for turf were mixed at 1:1, and calcium carbonate was added to the soil mixture to a Ca concentration of 5 mass %. An appropriate amount of aqueous sodium carbonate solution was added thereto, followed by sufficiently mixing, to thereby provide alkaline soil (pH: 8.8). Each of the No. 6-pots (surface area: 177 cm^2) was filled with the above-prepared soil, and on the day of June 13, 4 seeds of sunflower (Pachino-gold, product of Takii Seed Co., Ltd.) were sown in the soil, followed by cultivation in a greenhouse. Fourteen days after, two uniform seedlings per pot were selected by cutting. After cutting, an aqueous solution (0.05 mass %) of each agent having a composition shown in Table 7 was sprayed every 2 weeks to the stems and leaves of the plants in each pot (5 mL/pot), and the pot was controlled under ordinary conditions. On the day of August 10, the plant height and the dry weight of shoots of each plant were measured.
The test procedure of Example 19 was repeated, except that application of sulfur to soil treatment and application of other agent ingredients to foliage treatment were simultaneously performed.
The test procedure of Example 19 was repeated, except that the agent was changed.

Komatsuna [4] = test: Komatsuna pot test: foliage application of agent, then sub-irrigation with pH 9.0 sodium carbonate/sodium hydrogencarbonate buffer, fresh weight of shoots; type: in vivo, Komatsuna (species: Calvita); settings: 0.05 wt. % aqueous solution of agent on stems and leaves, 5 mL/pot, pH 9.0 buffer sub-irrigation three days after treatment, measured one week after irrigation
Procedure: Each of the pots (1/5000 a) was filled with andosols soil, and Komatsuna (species: Calvita, product of Nohara Seed Co., Ltd.) was sown in the soil. At the 3 leaf stage, five uniform seedlings per pot were selected by cutting. An aqueous solution (0.05 wt. %) of each agent having a composition shown in Table 1 was applied to the stems and leaves of the plants in each pot (5 mL/pot). Sulfur powder (“sulfur, powder,” product of Wako Pure Chemical Industries, Ltd.) was separately used in an amount given in Table 1 for soil treatment. The same sulfur powder was employed in the following Examples. Three days after the treatment, sub-irrigation was performed with a 0.5-mol/L aqueous sodium carbonate/sodium hydrogencarbonate buffer (pH: 9.0). One week after irrigation, the fresh weight of shoots of the plants was measured so as to check the growth conditions.
In Comparative Example 1, water was employed instead of an aqueous solution of each agent.

Cl.NCC(=O)CCC(=O)O [compound 20, 5-Aminolevulinic acid hydrochloride]
Dry weight of shoots (tomato): 4.5 g

O=C([O-])CN(CCN(CC(=O)[O-])CC(=O)[O-])CCN(CC(=O)[O-])CC(=O)[O-].[Fe+3].[NH4+].[NH4+] [compound 6, Ammonium diethylenetriaminepentaacetatoferrate]
Dry weight of shoots (Komatsuna [1]): 2.0 g
Plant height (cm) (Komatsuna [1]): 9.8 cm

Cl.NCC(=O)CCC(=O)O [compound 23, 5-Aminolevulinic acid hydrochloride]
Dry weight of shoots (Komatsuna [2]): 2.1 g
Plant height (cm) (Komatsuna [2]): 10.3 cm

Cl.NCC(=O)CCC(=O)O [compound 5, 5-Aminolevulinic acid hydrochloride]
Dry weight of shoots (Komatsuna [1]): 2.2 g
Plant height (cm) (Komatsuna [1]): 11.3 cm

NCC(=O)CCC(=O)O [5-aminolevulinic acid]
Foliage yield of plants [3]: prevent decrease in foliage yield

Cl.NCC(=O)CCC(=O)O [compound 14, 5-Aminolevulinic acid hydrochloride]
Dry weight of shoots (corn): 0.30 g
Plant height (cm) (corn): 23.2 cm

O=C([O-])CN(CCN(CC(=O)[O-])CC(=O)[O-])CCN(CC(=O)[O-])CC(=O)[O-].[Fe+3].[NH4+].[NH4+] [compound 24, Ammonium diethylenetriaminepentaacetatoferrate]
Dry weight of shoots (Komatsuna [2]): 1.9 g
Plant height (cm) (Komatsuna [2]): 10.1 cm

Cl.NCC(=O)CCC(=O)O [compound 10, 5-Aminolevulinic acid hydrochloride]
Dry weight of shoots (cotton): 0.9 g
Plant height (cm) (cotton): 13.1 cm

Cl.NCC(=O)CCC(=O)O [compound 17, 5-Aminolevulinic acid hydrochloride]
Dry weight of shoots (sunflower): 6.8 g
Plant height (cm) (sunflower): 36 cm

Cl.NCC(=O)CCC(=O)O [compound 2, 5-Aminolevulinic acid hydrochloride]
Fresh weight of shoots (%)(5 plants in total, relative to treatment period) (Komatsuna [4]): 55%
